The source made the active and inactive calls. How the calls were made is not given here.
System: CCRIS mutagenicity, Ames/micronucleus/aberration tests
Assay: CCRIS mutagenicity studies
[1] = Test System: AMES SALMONELLA TYPHIMURIUM, Strain/Indicator: TA98, Metabolic Activation: NONE, Method: STANDARD PLATE
[2] = Test System: AMES SALMONELLA TYPHIMURIUM, Strain/Indicator: TA98, Metabolic Activation: RAT, LIVER, S-9, AROCLOR 1254, Method: STANDARD PLATE
[3] = Test System: AMES SALMONELLA TYPHIMURIUM, Strain/Indicator: TA100, Metabolic Activation: NONE, Method: STANDARD PLATE
[4] = Test System: AMES SALMONELLA TYPHIMURIUM, Strain/Indicator: TA100, Metabolic Activation: RAT, LIVER, S-9, AROCLOR 1254, Method: STANDARD PLATE
[5] = Test System: AMES SALMONELLA TYPHIMURIUM, Strain/Indicator: TA1535, Metabolic Activation: NONE, Method: STANDARD PLATE
[6] = Test System: AMES SALMONELLA TYPHIMURIUM, Strain/Indicator: TA1535, Metabolic Activation: RAT, LIVER, S-9, AROCLOR 1254, Method: STANDARD PLATE
[7] = Test System: AMES SALMONELLA TYPHIMURIUM, Strain/Indicator: TA1538, Metabolic Activation: NONE, Method: STANDARD PLATE
[8] = Test System: AMES SALMONELLA TYPHIMURIUM, Strain/Indicator: TA1538, Metabolic Activation: RAT, LIVER, S-9, AROCLOR 1254, Method: STANDARD PLATE
[9] = Test System: AMES SALMONELLA TYPHIMURIUM, Strain/Indicator: TA98, Metabolic Activation: NONE, Method: PREINCUBATION
[10] = Test System: AMES SALMONELLA TYPHIMURIUM, Strain/Indicator: TA100, Metabolic Activation: NONE, Method: PREINCUBATION
[11] = Test System: AMES SALMONELLA TYPHIMURIUM, Strain/Indicator: TA98, Metabolic Activation: NONE

**Q.** For CSCCC(NC(=O)COc1cc(Cl)c(Cl)cc1Cl)C(=O)O (stereo not given), which mutagenic call (Test System: AMES SALMONELLA TYPHIMURIUM, Strain/Indicator: TA97, Metabolic Activation: NONE, Method: STANDARD PLATE) is on record?
**A.** inactive; negative

**Q.** And the mutagenic call (Test System: AMES SALMONELLA TYPHIMURIUM, Strain/Indicator: TA97, Metabolic Activation: RAT, LIVER, S-9, AROCLOR 1254, Method: STANDARD PLATE)?
**A.** inactive; negative

**Q.** And the mutagenic call [1]?
**A.** inactive; negative

**Q.** What about the mutagenic call [2] of the same compound?
**A.** inactive; negative

**Q.** What about the mutagenic call [3] of the same compound?
**A.** inactive; negative

**Q.** And the mutagenic call [4]?
**A.** inactive; negative

**Q.** What about the mutagenic call [5] of the same compound?
**A.** inactive; negative

**Q.** And the mutagenic call [6]?
**A.** inactive; negative

**Q.** And the mutagenic call [7]?
**A.** inactive; negative

**Q.** And the mutagenic call [8]?
**A.** inactive; negative

**Q.** CCN(CC)CCO was tested. Which mutagenic call (Test System: AMES SALMONELLA TYPHIMURIUM, Strain/Indicator: TA98, Metabolic Activation: HAMSTER, LIVER, S-9, AROCLOR 1254 (10%), Method: PREINCUBATION) did it give?
**A.** inactive; negative

**Q.** And the mutagenic call [9]?
**A.** inactive; negative

**Q.** What about the mutagenic call (Test System: AMES SALMONELLA TYPHIMURIUM, Strain/Indicator: TA98, Metabolic Activation: RAT, LIVER, S-9, AROCLOR 1254 (10%), Method: PREINCUBATION) of the same compound?
**A.** inactive; negative

**Q.** What about the mutagenic call (Test System: AMES SALMONELLA TYPHIMURIUM, Strain/Indicator: TA100, Metabolic Activation: HAMSTER, LIVER, S-9, AROCLOR 1254 (10%), Method: PREINCUBATION) of the same compound?
**A.** inactive; negative

**Q.** What about the mutagenic call [10] of the same compound?
**A.** inactive; negative

**Q.** What about the mutagenic call (Test System: AMES SALMONELLA TYPHIMURIUM, Strain/Indicator: TA100, Metabolic Activation: RAT, LIVER, S-9, AROCLOR 1254 (10%), Method: PREINCUBATION) of the same compound?
**A.** inactive; negative

**Q.** What about the mutagenic call (Test System: AMES SALMONELLA TYPHIMURIUM, Strain/Indicator: TA1535, Metabolic Activation: HAMSTER, LIVER, S-9, AROCLOR 1254 (10%), Method: PREINCUBATION) of the same compound?
**A.** inactive; negative

**Q.** What about the mutagenic call (Test System: AMES SALMONELLA TYPHIMURIUM, Strain/Indicator: TA1535, Metabolic Activation: NONE, Method: PREINCUBATION) of the same compound?
**A.** inactive; negative

**Q.** What about the mutagenic call (Test System: AMES SALMONELLA TYPHIMURIUM, Strain/Indicator: TA1535, Metabolic Activation: RAT, LIVER, S-9, AROCLOR 1254 (10%), Method: PREINCUBATION) of the same compound?
**A.** inactive; negative

**Q.** What about the mutagenic call (Test System: AMES SALMONELLA TYPHIMURIUM, Strain/Indicator: TA1537, Metabolic Activation: HAMSTER, LIVER, S-9, AROCLOR 1254 (10%), Method: PREINCUBATION) of the same compound?
**A.** inactive; negative

**Q.** What about the mutagenic call (Test System: AMES SALMONELLA TYPHIMURIUM, Strain/Indicator: TA1537, Metabolic Activation: NONE, Method: PREINCUBATION) of the same compound?
**A.** inactive; negative

**Q.** What about the mutagenic call (Test System: AMES SALMONELLA TYPHIMURIUM, Strain/Indicator: TA1537, Metabolic Activation: RAT, LIVER, S-9, AROCLOR 1254 (10%), Method: PREINCUBATION) of the same compound?
**A.** inactive; negative

**Q.** For O=[N+]([O-])c1ccc(Br)c([N+](=O)[O-])c1, which mutagenic call (Test System: AMES SALMONELLA TYPHIMURIUM, Strain/Indicator: TA98(1,8-DNP6), Metabolic Activation: NONE, Method: PREINCUBATION) is on record?
**A.** active; positive

**Q.** What about the mutagenic call (Test System: AMES SALMONELLA TYPHIMURIUM, Strain/Indicator: TA98(NR), Metabolic Activation: NONE, Method: PREINCUBATION) of the same compound?
**A.** active; positive

**Q.** What about the mutagenic call [9] of the same compound?
**A.** active; positive

**Q.** What about the mutagenic call (Test System: AMES SALMONELLA TYPHIMURIUM, Strain/Indicator: TA100(NR), Metabolic Activation: NONE, Method: PREINCUBATION) of the same compound?
**A.** active; positive

**Q.** And the mutagenic call (Test System: AMES SALMONELLA TYPHIMURIUM, Strain/Indicator: TA100/GSH-, Metabolic Activation: NONE, Method: PREINCUBATION)?
**A.** active; positive

**Q.** What about the mutagenic call [10] of the same compound?
**A.** active; positive

**Q.** With CCOCC1CO1 (stereo not given) as the compound, how does the mutagenic call [3] read?
**A.** active; positive

**Q.** And the mutagenic call [4]?
**A.** active; positive

**Q.** And the mutagenic call [5]?
**A.** active; positive

**Q.** And the mutagenic call [6]?
**A.** active; positive

**Q.** For Cc1cccc2c1C(C)c1ccccc1-2 (stereo not given), which mutagenic call [2] is on record?
**A.** active; positive

**Q.** What about the mutagenic call [4] of the same compound?
**A.** active; positive

**Q.** How did the mutagenic call (Test System: AMES SALMONELLA TYPHIMURIUM, Strain/Indicator: TA98, Metabolic Activation: RAT, LIVER, MICROSOMES, PHENOBARBITAL, Method: STANDARD PLATE) turn out when COc1c(C)c2c(c(O)c1C/C=C(\C)CCC(=O)O)C(=O)OC2 was run?
**A.** inactive; negative

**Q.** What about the mutagenic call (Test System: AMES SALMONELLA TYPHIMURIUM, Strain/Indicator: TA100, Metabolic Activation: RAT, LIVER, MICROSOMES, PHENOBARBITAL, Method: STANDARD PLATE) of the same compound?
**A.** inactive; negative

**Q.** Which results are given for NC(Cn1ccnc1)C(=O)O (stereo not given)?
**A.** mutagenic call [11]: inactive; negative; mutagenic call (Test System: AMES SALMONELLA TYPHIMURIUM, Strain/Indicator: TA100, Metabolic Activation: NONE): inactive; negative; mutagenic call (Test System: AMES SALMONELLA TYPHIMURIUM, Strain/Indicator: TA102, Metabolic Activation: NONE): inactive; negative; mutagenic call (Test System: AMES SALMONELLA TYPHIMURIUM, Strain/Indicator: TA1535, Metabolic Activation: NONE): inactive; negative; mutagenic call (Test System: AMES SALMONELLA TYPHIMURIUM, Strain/Indicator: TP2428, Metabolic Activation: NONE): inactive; negative; mutagenic call (Test System: E. COLI, Strain/Indicator: WP2 UVRA (PKM101), Metabolic Activation: NONE): active; positive

**Q.** For Cc1cc2ccc3cc4ccccc4c4ccc(c1)c2c34, which mutagenic call (Test System: AMES SALMONELLA TYPHIMURIUM, Strain/Indicator: TA100, Metabolic Activation: RAT, INTACT HEPATOCYTES, AROCLOR 1254, Method: PREINCUBATION) is on record?
**A.** active; positive

**Q.** And the mutagenic call (Test System: AMES SALMONELLA TYPHIMURIUM, Strain/Indicator: TA100, Metabolic Activation: RAT, NADPH-FORTIFIED HOMOGENIZED HEPATOCYTES, AROCLOR 1254, Method: PREINCUBATION)?
**A.** active; positive

**Q.** Which mutagenic call [9] does the source give for C[C@H](CCC(=O)O)[C@H]1CC[C@H]2[C@@H]3[C@H](O)C[C@@H]4C[C@H](O)CC[C@]4(C)[C@H]3C[C@H](O)[C@]12C here?
**A.** inactive; negative

**Q.** What about the mutagenic call (Test System: AMES SALMONELLA TYPHIMURIUM, Strain/Indicator: TA98, Method: PREINCUBATION) of the same compound?
**A.** inactive; negative

**Q.** And the mutagenic call [3]?
**A.** inactive; negative

**Q.** And the mutagenic call [4]?
**A.** inactive; negative

**Q.** How did the mutagenic call [3] turn out when C=CCCC1CO1 (stereo not given) was run?
**A.** active; positive

**Q.** And the mutagenic call [5]?
**A.** active; positive

**Q.** COC(=O)c1cc(Cc2ccc(N)c(C(=O)OC)c2)ccc1N was tested. Which mutagenic call [9] did it give?
**A.** inactive; negative

**Q.** What about the mutagenic call (Test System: AMES SALMONELLA TYPHIMURIUM, Strain/Indicator: TA98, Metabolic Activation: RAT, LIVER, S-9, PCB, Method: PREINCUBATION) of the same compound?
**A.** active; positive

**Q.** What about the mutagenic call [10] of the same compound?
**A.** inactive; negative

**Q.** And the mutagenic call (Test System: AMES SALMONELLA TYPHIMURIUM, Strain/Indicator: TA100, Metabolic Activation: RAT, LIVER, S-9, PCB, Method: PREINCUBATION)?
**A.** active; positive

**Q.** With O=c1c(O)c(C2=CC(O)(CCO)C(O)(CCO)C=C2)oc2c1C(O)=CC(O)(CCO)C2 (stereo not given) as the compound, how does the mutagenic call [1] read?
**A.** inactive; negative

**Q.** And the mutagenic call [2]?
**A.** inactive; negative

**Q.** What about the mutagenic call [3] of the same compound?
**A.** inactive; negative

**Q.** And the mutagenic call [4]?
**A.** inactive; negative

**Q.** What about the mutagenic call [5] of the same compound?
**A.** inactive; negative

**Q.** What about the mutagenic call [6] of the same compound?
**A.** inactive; negative

**Q.** And the mutagenic call (Test System: AMES SALMONELLA TYPHIMURIUM, Strain/Indicator: TA1537, Metabolic Activation: NONE, Method: STANDARD PLATE)?
**A.** inactive; negative

**Q.** What about the mutagenic call (Test System: AMES SALMONELLA TYPHIMURIUM, Strain/Indicator: TA1537, Metabolic Activation: RAT, LIVER, S-9, AROCLOR 1254, Method: STANDARD PLATE) of the same compound?
**A.** inactive; negative

**Q.** What about the mutagenic call [7] of the same compound?
**A.** inactive; negative

**Q.** What about the mutagenic call [8] of the same compound?
**A.** inactive; negative

**Q.** Which results are given for O=[N+]([O-])c1ccc2ccc3c4c(cc5ccc1c2c53)[C@H](O)[C@@H](O)C=C4?
**A.** mutagenic call [11]: active; positive; mutagenic call (Test System: AMES SALMONELLA TYPHIMURIUM, Strain/Indicator: TA98, Metabolic Activation: RAT, LIVER, S-9, AROCLOR 1254): active; positive; mutagenic call (Test System: CHINESE HAMSTER OVARY, Strain/Indicator: CHO-K1-BH4 (HGPRT), Metabolic Activation: NONE): active; positive; mutagenic call (Test System: CHINESE HAMSTER OVARY, Strain/Indicator: CHO-K1-BH4 (HGPRT), Metabolic Activation: RAT, LIVER, S-9, 3-METHYLCHOLANTHRENE): active; positive

**Q.** Which results are given for CSC(=O)c1cccc2nnsc12?
**A.** mutagenic call (End Point: In vivo micronucleus, Test System: Femoral bone marrow polychromatic erythrocytes, Species: Mouse, Strain/Sex: Female, Route: Gavage): inactive; negative; strain is not given by dpr reviewer; mutagenic call (End Point: In vivo micronucleus, Test System: Femoral bone marrow polychromatic erythrocytes, Species: Mouse, Strain/Sex: Male, Route: Gavage): inactive; negative; strain is not given by dpr reviewer
